From patent US20130123367A1, “VINYLOGOUS CHALCONE DERIVATIVES AND THEIR MEDICAL USE” (MEDIZINISCHE UNIVERSITAT WIEN, priority 2010, published 2013) come the findings set out here.

Format in all cases: cell-based
Test [1] concerns CCRF-CEM (T-cell acute lymphoblastic leukemia). The test is described as follows: Cell viability assay using EZ4U viability kit, CCRF-CEM. The conditions noted are these: Homo sapiens. As for the experimental part:
(§1) For quantification, cells are treated with a tetrazolium salt as indicator of cell viability. […] Then, the solution is analyzed photometrically at 450 nm with 620 nm as reference.
(§2) The final DMSO concentration was 0.5%. […] Then, wells were filled with 20 μl substrate solution for 2 to 4 hours and analyzed.
(§3) Cell viability was calculated relative to DMSO control for data comparison. IC50 values (50% inhibition of cell growth) were determined with GraphPad Prism® (Version 4.03) using nonlinear regression (sigmoidal dose-response with variable slope).

The test system of a further test is hematological cell lines. Briefly: Viability assay in cell lines, summary of Table 4. Particulars: after 48 hours in most of the cell lines, read-out: IC50-values obtained by the viability assay in cell lines. As for the experimental part:
as §1, §2, §3

Test [2] relates to CLL cell lines MEC-1 and MEC-2. The test is described as follows: Annexin V-FITC / propidium iodide staining, apoptosis in CLL cell lines. Particulars: MEC-1 and MEC-2; 24 and 48 hours incubation; FIG. 4. As for the experimental part:
Apoptosis was detected using propidium iodide/Annexin V FACS staining (Bender MedSystems).
Annexin V binds to phosphatidylserine which is exposed at the cell surface during execution of apoptosis. First, cells were seeded out at a density of 1.5 to 2.5 million cells per well in 12 well plates and then growth medium was added to each well to get a final volume of 2.5 ml. Compounds to be tested were diluted with medium from a 10 mM stock solution in DMSO to get different concentrations and cells were treated with 25 μl of these solutions. The final DMSO concentration was 0.5%. All treatments and controls were performed twice. Cells were incubated at 37° C. and 5% CO2 for 24 h and 48 h. Then, growth medium was removed by centrifugation, the supernatant discarded and 200 μl of an Annexin V solution were added. After 10 minutes in the dark, cells were washed once with Annexin buffer and the solution removed by centrifugation. The supernatant was discarded again and cells were suspended in 200 μl of a propidium iodide solution. Cells were measured by flow cytometry with a total of 10 000 events. Data were analyzed with CellQuest Pro™.
Compounds 1 and 22 were also tested on the CLL cell lines MEC-1 and MEC-2 in comparison with fludarabine and cyclophosphamide, two compounds used in the treatment of hematological malignancies (MEC-1 is a fludarabine-resistant cell line).

The next test has as its system melanoma cell line 518A2. Briefly: Cell proliferation assay using crystal violet, 518A2. Particulars: for IC50: Homo sapiens, 518A2, crystal violet assay, n = 3, 48 h incubation. On the procedure:
(§4) For quantification, cells are treated with crystal violet, a dye that stains proteins. After washing away of excess dye, the remaining crystal violet is dissolved in a sodium citrate solution. The solution is analyzed photometrically at 590 nm. The optical density of this solution depends on the concentration of crystal violet and therefore on the amount of cells. […] To reduce effects of evaporation, only the inner 60 wells of 96-well plates (coated with 0.1% gelatine solution for studies with HUVEC) were used for experiments.
(§5) Cells were seeded at a density of 5 000 cells per well in 100 μl growth medium (HUVEC) or 20 000 (HCT116), 15 000 (SW480 and 518A2) or 10 000 (HT29) cells per well in 200 μl growth medium in 55 wells per plate. 5 wells were filled with medium only. Additionally, a 96-well plate with cells in 12 wells and medium in 6 wells was prepared as T0-plate. The next day, additional 98 μl of growth medium were added in every well (only HUVEC).
(§6) Cells were treated with 2 μl of the working solution 24 h after seeding. Final compound concentrations in the well were 10 μM for the first round of screening. The final DMSO concentration was 0.5%. […] After finishing the addition of compounds, the T0-plate was stained with crystal violet for giving the cell density at time point zero. Before staining, the growth medium was poured away. Wells were filled with 50 μl crystal violet solution for 10 min. Then the staining solution was washed away with water. Since crystal violet is environmentally hazardous the waste was collected and disposed in an appropriate manner. After air drying of the plates the crystal violet on the cells was dissolved in 100 μl of sodium citrate solution, and the absorption was measured with a plate reader at 590 nm.
Mean values were corrected with the absorption of stained medium and the corrected absorption of T0 cells. Cell growth was calculated relative to DMSO control for data comparison. IC50 values (50% inhibition of cell growth) were determined with GraphPad Prism® (Version 4.03) using nonlinear regression (sigmoidal dose-response with variable slope).
Compounds showing an inhibition of proliferation of more than 50% at a concentration of 10 μM were defined as active, and their IC50-values were determined.

Test [3] relates to primary chronic lymphocytic leukemia (CLL) cells. The test is described as follows: In vitro drug test in primary CLL cells (CellTiter-Blue viability). Particulars: 48 h incubation; mean of 15 patients; FIG. 6. An excerpt: FIG. 6: […] Data points represent the arithmetic mean of 15 patients calculated in relation to the control. […] The final DMSO concentration was 0.5%.
(In general: Resazurin is reduced to fluorescent resorufin, in cell work by metabolically active cells.)

Test [4] deals with HL60 (Acute promyelocytic leukemia). The test is described as follows: Cell viability assay using EZ4U viability kit, HL60. Particulars: Homo sapiens. As for the experimental part:
as §1, §2, §3

Test [5] has as its system Jurkat (T-cell acute lymphoblastic leukemia). The test is described as follows: Cell viability assay using EZ4U viability kit, Jurkat. Particulars: Homo sapiens. As for the experimental part: as §1, §2, §3
In the next test the test system is HCT116 cell line. The test is described as follows: Cell proliferation assay using crystal violet, HCT116. The conditions noted are these: Homo sapiens, HCT-116, n = 3, 24 h incubation. On the procedure:
as §4, §5, §6
Mean values were corrected with the absorption of stained medium and the corrected absorption of T0 cells. Cell growth was calculated relative to DMSO control for data comparison.

The subject of test [6] is melanoma cell line SK-MEL 5. Briefly: Crystal violet assay, SK-MEL 5. Particulars: Homo sapiens, n = 3. As for the experimental part:
as §4
(§7) Cells were treated with 2 μl of the working solution 24 h after seeding. Final compound concentrations in the well were 10 μM for the first round of screening. The final DMSO concentration was 0.5%. […] After finishing the addition of compounds, the T0-plate was stained with crystal violet for giving the cell density at time point zero. […] After air drying of the plates the crystal violet on the cells was dissolved in 100 μl of sodium citrate solution, and the absorption was measured with a plate reader at 590 nm.
(§8) Mean values were corrected with the absorption of stained medium and the corrected absorption of T0 cells. Cell growth was calculated relative to DMSO control for data comparison. IC50 values (50% inhibition of cell growth) were determined with GraphPad Prism® (Version 4.03) using nonlinear regression (sigmoidal dose-response with variable slope). […]

Test [7] has as its system colon cancer cell line HT29. The test is described as follows: Cell proliferation assay using crystal violet, HT29. The conditions noted are these: Homo sapiens, HT-29, n = 3, 24 h incubation. On the procedure: as §4, §5, §6, §8
Test [8] has as its system colon carcinoma cell line HCT116p53ko. Briefly: Crystal violet assay, HCT116p53ko. The conditions noted are these: n = 3. As for the experimental part:
as §4, §7, §8

Test [9] relates to vascular smooth muscle cells (VSMC). The test is described as follows: Crystal violet assay, VSMC. The conditions noted are these: Rattus norvegicus, n = 3. As for the experimental part: as §4, §7, §8
Test [10] deals with breast cancer cell line MDA MB231. Briefly: Crystal violet assay, MDA MB231. The conditions noted are these: Homo sapiens, MDA-MB-231, n = 3. On the procedure:
as §4, §7, §8

The mark [11] stands for this setting: 24 h incubation, read-out: IC50 (nM) CCRF-CEM 24 h.
Setting [12] is: 48 h incubation, read-out: IC50 (nM) CCRF-CEM 48 h.
The mark [13] stands for this setting: HL-60, 24 h incubation, read-out: IC50 (nM) HL60 24 h.
[14] abbreviates: HL-60, 48 h incubation, read-out: IC50 (nM) HL60 48 h.
The mark [15] stands for this setting: 24 h incubation, read-out: IC50 (nM) Jurkat 24 h (converted).
[16] abbreviates: 48 h incubation, read-out: IC50 (nM) Jurkat 48 h (converted).

The IC50 is the concentration needed to halve the response being measured.

Read-outs that look alike come from different tables or passages of the source.

As for `CCOc1ccccc1C(=O)/C=C/c1ccc2ccccc2c1` [Compound 22, 3-(2-Naphthyl)-1-(2′-ethoxyphenyl)-2-propene-1-one], the IC50 in test [1] (setting [11]) is 40 nM; in test [1] (setting [12]), 40 nM; with hematological cell lines, around 10 nM; with melanoma cell line 518A2 it was 40 nM; in [4] (setting [13]), 10 nM; in [4] (setting [14]), 20 nM. In addition, the results for the IC50 in [5] (setting [15]) and in test [5] (setting [16]) were 7840 nM and 7210 nM, respectively. For the same molecule, the “apoptosis induction compared with fludarabine and cyclophosphamide” value in [2] was “induced apoptosis in a lower concentration range than fludarabine and cyclophosphamide”. The “potency relative to cisplatin” value in the test on melanoma cell line 518A2 (melanoma cell line 518A2, ratio of IC50 values) is “about 250 times”. For the same molecule, the “viability of primary CLL cells in suspension culture” value in test [3] was “effective in CLL cells at lower concentrations than the standard therapeutic drugs fludarabine and cyclophosphamide”.

As for `COc1ccccc1/C=C/C=C/C(=O)c1cc(OC)c(OC)c(OC)c1` [Compound 1, 5-(2-Methoxyphenyl)-1-(3′,4′,5′-trimethoxyphenyl)-2,4-pentadiene-1-one], the IC50 was 230 nM in the test on HCT116 cell line; 70 nM in test [1] (setting [11]); 70 nM in test [1] (setting [12]); 150 nM in test [6]; around 10 nM in the test with hematological cell lines; 540 nM in test [7]. Besides, the IC50 in the test on melanoma cell line 518A2 is 150 nM; in [8], 100 nM; in test [9] it was above 100000 nM; in test [4] (setting [13]) it was 490 nM; in test [4] (setting [14]) it was 170 nM; in test [10] it was 630 nM. Further, the results for the IC50 in test [5] (setting [15]) and in test [5] (setting [16]) were 1110 nM and 630 nM, respectively. Also, in test [2], the “apoptosis induction compared with fludarabine and cyclophosphamide” value was “induced apoptosis in a lower concentration range than fludarabine and cyclophosphamide”. Besides, the “viability of primary CLL cells in suspension culture” value in [3] is “effective in CLL cells at lower concentrations than the standard therapeutic drugs fludarabine and cyclophosphamide”.
